IC90 data for nine compounds are collected here from patent publication US12595255B2, “Heteroaryl-substituted imidazole derivatives” (Hoffmann-La Roche Inc., priority 2021, dated 2026).

The test system of the test is Acinetobacter baumannii ATCC17961. As to the kind of experiment: Antimicrobial susceptibility testing: 90% growth inhibitory concentration (IC90) determination. Format: cell-based. The conditions noted are these: ATCC17961, 90% growth inhibitory concentration, Iso-Sensitest broth, OD 600 nm over 16 h, 35±2° C., read-out: ATCC 17961 IC90. The method, then:
Assay Procedures Antimicrobial Susceptibility Testing: 90% Growth Inhibitory Concentration (IC90) Determination
The in vitro antimicrobial activity of the compounds was determined according to the following procedure:
The assay used a 10-points Iso-Sensitest broth medium to measure quantitatively the in vitro activity of the compounds against Acinetobacter baumannii ATCC17961.
Stock compounds in DMSO were serially twofold diluted (e.g. range from 50 to 0.097 μM final concentration) in 384 wells microtiter plates and inoculated with 49 μl the bacterial suspension in Iso-Sensitest medium to have a final cell concentration of ˜5×10^5 CFU/ml in a final volume/well of 50 μl/well. Microtiter plates were incubated at 35±2° C.
Bacterial cell growth was determined with the measurement of optical density at λ=600 nm each 20 minutes over a time course of 16 h. Growth inhibition was calculated during the logarithmic growth of the bacterial cells with determination of the concentration inhibiting 50% (IC50) and 90% (IC90) of the growth.
Table 1 provides the 90% growth inhibitory concentrations (IC90) in micromoles per liter of the compounds of present invention obtained against the strain Acinetobacter baumannii ATCC17961.
Regarding `Cn1c(-c2c(Cl)ccc3[nH]ccc23)cnc1C(=O)Nc1ccc(C(=O)N2CCN(C(=O)C[C@@H]3CCNC3)CC2)c(Cl)c1` [Example A11, 5-(5-chloro-1H-indol-4-yl)-N-[3-chloro-4-[4-[2-[(3S)-pyrrolidin-3-yl]acetyl]piperazine-1-carbonyl]phenyl]-1-methyl-imidazole-2-carboxamide], the IC90 came out at 290 nM.

`CN(C)c1ncc(-c2cnc(C(=O)Nc3ccc(C(=O)N4CCN(C(=O)C[C@@H]5CCNC5)CC4)c(Cl)c3)n2C)c(C(F)(F)F)n1` [Example A9, N-[3-chloro-4-[4-[2-[(3S)-pyrrolidin-3-yl]acetyl]piperazine-1-carbonyl]phenyl]-5-[2-(dimethylamino)-4-(trifluoromethyl)pyrimidin-5-yl]-1-methyl-imidazole-2-carboxamide]: the IC90 stood at 580 nM.

`CN(C)c1ccc(-c2cnc(C(=O)Nc3ccc(C(=O)N4CCN(C(=O)C5CCNCC5)CC4)c(Cl)c3)n2C)c(F)n1` [Example E3, N-[3-chloro-4-[4-(piperidine-4-carbonyl)piperazine-1-carbonyl]phenyl]-5-[6-(dimethylamino)-2-fluoro-3-pyridyl]-1-methyl-imidazole-2-carboxamide]: the concentration for an effect of 90% (IC90) was 470 nM.

As to `Cn1c(-c2cccc3[nH]ccc23)cnc1C(=O)Nc1ccc(C(=O)N2CCN(C(=O)C3CCNCC3)CC2)c(Cl)c1` [Example A12, N-[3-chloro-4-[4-(piperidine-4-carbonyl)piperazine-1-carbonyl]phenyl]-5-(1H-indol-4-yl)-1-methyl-imidazole-2-carboxamide], the IC90 was found to be 490 nM.

As for `CN(C)c1nc(F)c(-c2cnc(C(=O)Nc3ccc(C(=O)N4CCN(C(=O)C5CC(C[N+](C)(C)C)C5)CC4)c(Cl)c3)n2C)cc1F` (stereo not drawn) [Example D11, [3-[4-[2-chloro-4-[[5-[6-(dimethylamino)-2,5-difluoro-3-pyridyl]-1-methyl-imidazole-2-carbonyl]amino]benzoyl]piperazine-1-carbonyl]cyclobutyl]methyl-trimethyl-ammonium], the IC90 worked out at 1500 nM.

`COc1ccc(-c2cnc(C(=O)Nc3ccc(C(=O)N4CCN(C(=O)[C@@H]5[C@@H]6CNC[C@@H]65)CC4)c(Cl)c3)n2C)c(C(F)(F)F)n1` [Example A18, N-[4-[4-[(1R,5S)-3-azabicyclo[3.1.0]hexane-6-carbonyl]piperazine-1-carbonyl]-3-chloro-phenyl]-5-[6-methoxy-2-(trifluoromethyl)-3-pyridyl]-1-methyl-imidazole-2-carboxamide]: the IC90 is 260 nM.

Consider `CN(C)c1nc(F)c(-c2cnc(C(=O)Nc3ccc(C(=O)N4CCN(C(=O)CC5(O)CCNCC5)CC4)c(Cl)c3)n2C)cc1F` [Example F3, N-[3-chloro-4-[4-[2-(4-hydroxy-4-piperidyl)acetyl]piperazine-1-carbonyl]phenyl]-5-[6-(dimethylamino)-2,5-difluoro-3-pyridyl]-1-methyl-imidazole-2-carboxamide], for which the concentration for an effect of 90% (IC90) is 430 nM.

Consider `CN(C)CC(=O)N1CCN(C(=O)c2ccc(NC(=O)c3ncc(-c4cc(F)c(N(C)C)nc4F)n3C)cc2Cl)CC1` [Example C1, N-[3-chloro-4-[4-[2-(dimethylamino)acetyl]piperazine-1-carbonyl]phenyl]-5-[6-(dimethylamino)-2,5-difluoro-3-pyridyl]-1-methyl-imidazole-2-carboxamide], for which the IC90 turned out to be 530 nM.

On to `Cc1n[nH]c2cc(F)c(-c3cnc(C(=O)Nc4ccc(C(=O)N5CCN(C(=O)C[C@@H]6CCNC6)CC5)c(Cl)c4)n3C)cc12` [Example A2, N-[3-chloro-4-[4-[2-[(3S)-pyrrolidin-3-yl]acetyl]piperazine-1-carbonyl]phenyl]-5-(6-fluoro-3-methyl-1H-indazol-5-yl)-1-methyl-imidazole-2-carboxamide], for which the concentration for an effect of 90% (IC90) was 460 nM.
